According to ChEMBL document CHEMBL3046907, “Microwave-assisted synthesis of pyrido[1,2-a]benzimidazole derivatives of -aryloxyquinoline and their antimicrobial and antituberculosis activities” (2013):
Converted amounts (≈) assume the structure as drawn.

What was measured:
Assay type in all cases: functional
Salmonella typhi = assay: Antibacterial activity against Salmonella enterica subsp. enterica serovar Typhi MTCC 98 after overnight incubation by broth microdilution method
Clostridium tetani = assay: Antibacterial activity against Clostridium tetani MTCC 449 after overnight incubation by broth microdilution method
Candida albicans = assay: Antifungal activity against Candida albicans MTCC 227 after overnight incubation by broth microdilution method
Escherichia coli = assay: Antibacterial activity against Escherichia coli MTCC 443 after overnight incubation by broth microdilution method
[1] = tested on: Mycobacterium tuberculosis; assay: Growth inhibition of Mycobacterium tuberculosis H37Rv at 6.25 ug/ml after 28 days by Lowenstein-Jensen method; conditions: 672 h, read-out: GI
Bacillus subtilis = assay: Antibacterial activity against Bacillus subtilis MTCC 441 after overnight incubation by broth microdilution method
Streptococcus pneumoniae = assay: Antibacterial activity against Streptococcus pneumoniae MTCC 1936 after overnight incubation by broth microdilution method
Aspergillus fumigatus = assay: Antifungal activity against Aspergillus fumigatus MTCC 3008 after overnight incubation by broth microdilution method
Vibrio cholerae = assay: Antibacterial activity against Vibrio cholerae MTCC 3906 after overnight incubation by broth microdilution method
[2] = tested on: Mycobacterium tuberculosis; assay: Antitubercular activity against Mycobacterium tuberculosis H37Rv after 28 days by Lowenstein-Jensen method; conditions: 672 h

SMILES	MIC99 (Salmonella typhi) [µg/mL]	MIC99 (Clostridium tetani) [µg/mL]	MIC99 (Candida albicans) [µg/mL]	MIC99 (Escherichia coli) [µg/mL]	inhibition of growth at 6.25 µg/mL [1] [%]	MIC99 (Bacillus subtilis) [µg/mL]	MIC99 (Streptococcus pneumoniae) [µg/mL]	MIC99 (Aspergillus fumigatus) [µg/mL]	MIC99 (Vibrio cholerae) [µg/mL]	MIC [2] [µg/mL]
Cc1ccc(Oc2nc3ccccc3cc2-c2c(C#N)c(N)n3c(nc4cc(C)ccc43)c2C#N)cc1	200 (≈ 416 µM)	62.5 (≈ 130 µM)	500 (≈ 1040 µM)	62.5 (≈ 130 µM)	12	250 (≈ 520 µM)	200 (≈ 416 µM)	1000 (≈ 2080 µM)	200 (≈ 416 µM)	
COc1ccc2nc(Oc3ccc(C)cc3)c(-c3c(C#N)c(N)n4c(nc5cc(C)ccc54)c3C#N)cc2c1	100 (≈ 196 µM)	200 (≈ 392 µM)	1000 (≈ 1960 µM)	200 (≈ 392 µM)	10	125 (≈ 245 µM)	100 (≈ 196 µM)	> 1000	125 (≈ 245 µM)	
COc1ccc(Oc2nc3ccc(OC)cc3cc2-c2c(C#N)c(N)n3c(nc4cc(C)ccc43)c2C#N)cc1	250 (≈ 475 µM)	200 (≈ 380 µM)	500 (≈ 950 µM)	200 (≈ 380 µM)	70	100 (≈ 190 µM)	200 (≈ 380 µM)	> 1000	125 (≈ 237 µM)	
COc1ccc2nc(Oc3ccc(F)cc3)c(-c3c(C#N)c(N)n4c(nc5cc(C)ccc54)c3C#N)cc2c1	200 (≈ 389 µM)	100 (≈ 194 µM)	500 (≈ 972 µM)	100 (≈ 194 µM)	96	250 (≈ 486 µM)	100 (≈ 194 µM)	1000 (≈ 1940 µM)	200 (≈ 389 µM)	12.5 (≈ 24.3 µM)
Cc1ccc(Oc2nc3ccccc3cc2-c2c(C#N)c(N)n3c(nc4ccccc43)c2C#N)cc1	100 (≈ 214 µM)	250 (≈ 536 µM)	> 1000	100 (≈ 214 µM)	52	250 (≈ 536 µM)	125 (≈ 268 µM)	250 (≈ 536 µM)	100 (≈ 214 µM)	
COc1ccc(Oc2nc3ccccc3cc2-c2c(C#N)c(N)n3c(nc4ccccc43)c2C#N)cc1	200 (≈ 415 µM)	250 (≈ 518 µM)	250 (≈ 518 µM)	125 (≈ 259 µM)	24	250 (≈ 518 µM)	200 (≈ 415 µM)	500 (≈ 1040 µM)	125 (≈ 259 µM)	
N#Cc1c(-c2cc3ccccc3nc2Oc2ccc(F)cc2)c(C#N)c2nc3ccccc3n2c1N	250 (≈ 531 µM)	200 (≈ 425 µM)	500 (≈ 1060 µM)	200 (≈ 425 µM)	75	250 (≈ 531 µM)	125 (≈ 266 µM)	500 (≈ 1060 µM)	250 (≈ 531 µM)	
Cc1ccc2nc(Oc3ccccc3)c(-c3c(C#N)c(N)n4c(nc5ccccc54)c3C#N)cc2c1	100 (≈ 214 µM)	250 (≈ 536 µM)	250 (≈ 536 µM)	62.5 (≈ 134 µM)	19	200 (≈ 429 µM)	200 (≈ 429 µM)	1000 (≈ 2140 µM)	200 (≈ 429 µM)	
Cc1ccc(Oc2nc3ccc(C)cc3cc2-c2c(C#N)c(N)n3c(nc4ccccc43)c2C#N)cc1	125 (≈ 260 µM)	500 (≈ 1040 µM)	1000 (≈ 2080 µM)	100 (≈ 208 µM)	32	100 (≈ 208 µM)	250 (≈ 520 µM)	> 1000	100 (≈ 208 µM)	
COc1ccc(Oc2nc3ccc(C)cc3cc2-c2c(C#N)c(N)n3c(nc4ccccc43)c2C#N)cc1	200 (≈ 403 µM)	500 (≈ 1010 µM)	1000 (≈ 2010 µM)	250 (≈ 503 µM)	62	125 (≈ 252 µM)	100 (≈ 201 µM)	> 1000	200 (≈ 403 µM)	
Cc1ccc2nc(Oc3ccc(F)cc3)c(-c3c(C#N)c(N)n4c(nc5ccccc54)c3C#N)cc2c1	250 (≈ 516 µM)	250 (≈ 516 µM)	250 (≈ 516 µM)	200 (≈ 413 µM)	94	250 (≈ 516 µM)	200 (≈ 413 µM)	500 (≈ 1030 µM)	250 (≈ 516 µM)	25 (≈ 51.6 µM)
COc1ccc2nc(Oc3ccccc3)c(-c3c(C#N)c(N)n4c(nc5ccccc54)c3C#N)cc2c1	200 (≈ 415 µM)	100 (≈ 207 µM)	500 (≈ 1040 µM)	250 (≈ 518 µM)	46	250 (≈ 518 µM)	250 (≈ 518 µM)	1000 (≈ 2070 µM)	200 (≈ 415 µM)	
COc1ccc2nc(Oc3ccc(C)cc3)c(-c3c(C#N)c(N)n4c(nc5ccccc54)c3C#N)cc2c1	250 (≈ 503 µM)	125 (≈ 252 µM)	500 (≈ 1010 µM)	125 (≈ 252 µM)	58	200 (≈ 403 µM)	500 (≈ 1010 µM)	> 1000	250 (≈ 503 µM)	
COc1ccc(Oc2nc3ccc(OC)cc3cc2-c2c(C#N)c(N)n3c(nc4ccccc43)c2C#N)cc1	200 (≈ 390 µM)	200 (≈ 390 µM)	> 1000	125 (≈ 244 µM)	79	250 (≈ 488 µM)	500 (≈ 976 µM)	250 (≈ 488 µM)	125 (≈ 244 µM)	
COc1ccc2nc(Oc3ccc(F)cc3)c(-c3c(C#N)c(N)n4c(nc5ccccc54)c3C#N)cc2c1	500 (≈ 999 µM)	200 (≈ 400 µM)	> 1000	200 (≈ 400 µM)	86	200 (≈ 400 µM)	500 (≈ 999 µM)	500 (≈ 999 µM)	200 (≈ 400 µM)	
Cc1ccc2c(c1)nc1c(C#N)c(-c3cc4ccccc4nc3Oc3ccccc3)c(C#N)c(N)n12	200 (≈ 429 µM)	250 (≈ 536 µM)	500 (≈ 1070 µM)	100 (≈ 214 µM)	49	200 (≈ 429 µM)	250 (≈ 536 µM)	500 (≈ 1070 µM)	500 (≈ 1070 µM)	
COc1ccc(Oc2nc3ccccc3cc2-c2c(C#N)c(N)n3c(nc4cc(C)ccc43)c2C#N)cc1	125 (≈ 252 µM)	200 (≈ 403 µM)	200 (≈ 403 µM)	100 (≈ 201 µM)	64	250 (≈ 503 µM)	250 (≈ 503 µM)	1000 (≈ 2010 µM)	250 (≈ 503 µM)	
Cc1ccc2c(c1)nc1c(C#N)c(-c3cc4ccccc4nc3Oc3ccc(F)cc3)c(C#N)c(N)n12	125 (≈ 258 µM)	250 (≈ 516 µM)	250 (≈ 516 µM)	62.5 (≈ 129 µM)	99	500 (≈ 1030 µM)	100 (≈ 206 µM)	> 1000	500 (≈ 1030 µM)	6.25 (≈ 12.9 µM)
Cc1ccc2nc(Oc3ccccc3)c(-c3c(C#N)c(N)n4c(nc5cc(C)ccc54)c3C#N)cc2c1	250 (≈ 520 µM)	250 (≈ 520 µM)	500 (≈ 1040 µM)	250 (≈ 520 µM)	71	500 (≈ 1040 µM)	100 (≈ 208 µM)	> 1000	200 (≈ 416 µM)	
Cc1ccc(Oc2nc3ccc(C)cc3cc2-c2c(C#N)c(N)n3c(nc4cc(C)ccc43)c2C#N)cc1	250 (≈ 506 µM)	125 (≈ 253 µM)	500 (≈ 1010 µM)	200 (≈ 404 µM)	58	200 (≈ 404 µM)	250 (≈ 506 µM)	500 (≈ 1010 µM)	125 (≈ 253 µM)	
COc1ccc(Oc2nc3ccc(C)cc3cc2-c2c(C#N)c(N)n3c(nc4cc(C)ccc43)c2C#N)cc1	250 (≈ 490 µM)	100 (≈ 196 µM)	1000 (≈ 1960 µM)	250 (≈ 490 µM)	25	125 (≈ 245 µM)	125 (≈ 245 µM)	> 1000	200 (≈ 392 µM)	
Cc1ccc2nc(Oc3ccc(F)cc3)c(-c3c(C#N)c(N)n4c(nc5cc(C)ccc54)c3C#N)cc2c1	200 (≈ 401 µM)	100 (≈ 201 µM)	> 1000	200 (≈ 401 µM)	97	250 (≈ 501 µM)	200 (≈ 401 µM)	> 1000	100 (≈ 201 µM)	12.5 (≈ 25.1 µM)
COc1ccc2nc(Oc3ccccc3)c(-c3c(C#N)c(N)n4c(nc5cc(C)ccc54)c3C#N)cc2c1	100 (≈ 201 µM)	250 (≈ 503 µM)	1000 (≈ 2010 µM)	62.5 (≈ 126 µM)	78	250 (≈ 503 µM)	250 (≈ 503 µM)	500 (≈ 1010 µM)	250 (≈ 503 µM)	
N#Cc1c(-c2cc3ccccc3nc2Oc2ccccc2)c(C#N)c2nc3ccccc3n2c1N	250 (≈ 553 µM)	100 (≈ 221 µM)	1000 (≈ 2210 µM)	250 (≈ 553 µM)	80	100 (≈ 221 µM)	62.5 (≈ 138 µM)	500 (≈ 1110 µM)	200 (≈ 442 µM)	
CC1(C)S[C@@H]2[C@H](NC(=O)[C@H](N)c3ccccc3)C(=O)N2[C@H]1C(=O)O [AMPICILLIN]	100 (≈ 286 µM)	250 (≈ 715 µM)		100 (≈ 286 µM)		250 (≈ 715 µM)	100 (≈ 286 µM)		100 (≈ 286 µM)	
O=C(O)c1cn(C2CC2)c2cc(N3CCNCC3)c(F)cc2c1=O [CIPROFLOXACIN]	25 (≈ 75.4 µM)			25 (≈ 75.4 µM)		50 (≈ 151 µM)	50 (≈ 151 µM)		25 (≈ 75.4 µM)	
COC1=CC(=O)C[C@@H](C)[C@]12Oc1c(Cl)c(OC)cc(OC)c1C2=O [GRISEOFULVIN]			500 (≈ 1420 µM)					100 (≈ 283 µM)		
NNC(=O)c1ccncc1 [ISONIAZID]					99					0.2 (≈ 1.46 µM)
CCn1cc(C(=O)O)c(=O)c2cc(F)c(N3CCNCC3)cc21 [NORFLOXACIN]	10 (≈ 31.3 µM)	50 (≈ 157 µM)		10 (≈ 31.3 µM)		100 (≈ 313 µM)	10 (≈ 31.3 µM)		10 (≈ 31.3 µM)	
CO[C@H]1/C=C/O[C@@]2(C)Oc3c(C)c(O)c4c(O)c(c(/C=N/N5CCN(C)CC5)c(O)c4c3C2=O)NC(=O)/C(C)=C\C=C\[C@H](C)[C@H](O)[C@@H](C)[C@@H](O)[C@@H](C)[C@H](OC(C)=O)[C@@H]1C [RIFAMPIN]					98					40 (≈ 48.6 µM)
